Measured values reported in US20250311759A1, “ORGANIC COMPOUNDS” (GIVAUDAN SA, priority 2022, published 2025).

Experiments:
Type in all cases: in vivo
sensory panel [1] = test: Effect on commercially available cheese sauce, sensory panel
Text: The effect of 1H-imidazole on a commercially available cheese sauce was explored.
Therefore, a cheese sauce has been compared by a sensory panel with a sample of the sauce further comprising 70 ppm of 1H-imidazole.
The effect of 2-(1H-imidazol-4-yl)acetic acid on a commercially available cheese sauce was explored. Therefore, a cheese sauce has been compared by a sensory panel with a sample of the sauce further comprising 50 ppm of 2-(1H-imidazol-4-yl)acetic acid.

sensory panel [2] = test: Effect on soy based vegan burger, sensory panel; conditions: 70 ppm in soy based vegan burger; initial peak and last phase of salt perception
Text: Soy based vegan burgers with and without 1H-imidazole have been tasted by a sensory panel.

sensory panel [3] = test: Effect on potato chips, sensory panel; conditions: 70 ppm, potato chips with 1.5% salt
Text: Potato chips with 1.5% salt have been tasted by a sensory panel with and without 1H-imidazole.

sensory panel [4] = test: Effect on model broth base, sensory panel
Text: A model broth base, comprising 0.3% of NaCl was compared with a sample further comprising 100 ppm of 1H-imidazole.
(§1) The solutions were tasted by a sensory panel.
A model broth base, comprising 0.3% of NaCl was compared with a sample further comprising 70 ppm of 2-(1H-imidazol-4-yl)acetic acid, and 100 ppm of benzimidazole, respectively.
The solutions were tasted by a sensory panel. […] The solution comprising benzimidazole was preferred.

sensory panel [5] = test: Salt enhancement in aqueous NaCl solution, sensory panel; conditions: for taste description versus 0.5% NaCl solution: 50 ppm in 0.5% NaCl
Text: Two aqueous solutions have been prepared: • A) 0.3% NaCl, and • B) 0.3% NaCl and 100 ppm of 1H-imidazole.
The solutions were tasted by a sensory panel. Solution A was described as “salty”.
Two aqueous solutions have been prepared: • A) 0.5% NaCl, and • B) 0.5% NaCl and 50 of ppm of 4-methyl-1H-imidazole.
The solutions were tasted by a sensory panel. Solution A was described as “salty”. Solution B was described as more salty in comparison to solution A.
Two aqueous solutions have been prepared: • A) 0.5% NaCl, and • B) 0.5% NaCl and 50 ppm of (2E)-3-(1H-imidazol-4-yl)prop-2-enoic acid (urocanic acid).
The following aqueous solutions have been prepared: • A) 0.3% NaCl, • B) 0.3% NaCl and 90 ppm of 2-(1H-imidazol-4-yl)acetic acid, and • C) 0.3% NaCl and 80 ppm of benzimidazole. • The solutions were tasted by a sensory panel. Solution A was described as “salty”.

sensory panel [6] = test: Bitter masking in aqueous KCl solution, sensory panel
Text: Two aqueous solutions have been prepared: • A) 0.3% KCl, and • B) 0.3% KCl and 70 ppm of 1H-imidazole.
as §1
The following aqueous solutions have been prepared: • A) 0.3% KCl, and • B) 0.3% KCl and 100 ppm of 2-(1H-imidazol-4-yl)acetic acid, and • C) 0.3% KCl and 100 ppm of benzimidazole.

sensory panel [7] = test: Effect on corn curls with cheese flavor, sensory panel
Text: Corn curls with cheese flavor with and without addition of 1H-imidazole have been compared by a sensory panel.
Corn curls with cheese flavor with addition of 2-(1H-imidazol-4-yl)acetic acid or benzimidazole and without have been compared by a sensory panel.

sensory panel [8] = test: Umami enhancement in savoury model solution (NaCl, MSG, Ribotides), sensory panel; conditions: 100 ppm in 0.5% NaCl, 0.03% MSG, 0.007% Ribotides
Text: Two aqueous solutions have been prepared: • A) 0.5% NaCl, 0.03% MSG, 0.007% Ribotides, and • B) 0.5% NaCl, 0.03% MSG, 0.007% Ribotides and 100 ppm of 1H-imidazole.
The solutions were tasted by a sensory panel. Solution A is a model solution for savoury taste, containing MSG (monosodium glutamate) and Ribotides (IMP/GMP, 50/50 mixture) as savoury taste enhancer.

sensory panel [9] = test: Effect on commercially available mayonnaise, sensory panel; conditions: 70 ppm in mayonnaise
Text: Samples of commercially available mayonnaise with and without addition of 1H-imidazole have been compared by a sensory panel.
Samples of commercially available mayonnaise with addition of 2-(1H-imidazol-4-yl)acetic acid or benzimidazole and without have been compared by a sensory panel.

sensory panel [10] = test: Effect on commercially available ketchup, sensory panel
Text: Samples of commercially available ketchup with and without addition of 2-(1H-imidazol-4-yl)acetic acid or benzimidazole have been compared by a sensory panel.

[11] = 100 ppm in model broth base comprising 0.3% NaCl
[12] = 150 ppm on corn curls with cheese flavor

c1c[nH]cn1 [1H-imidazole]
taste description versus cheese sauce (sensory panel [1]; 70 ppm in cheese sauce): more mineral and salty
taste description versus burger without compound (sensory panel [2]): more salty
taste description versus potato chips without compound (sensory panel [3]): higher salty impact and a lingering effect
taste description versus model broth base (sensory panel [4]; [11]): more mineral and salty as well as more umami
taste description versus 0.3% NaCl solution (sensory panel [5]; 100 ppm in 0.3% NaCl): clearly more salty with a mineralic note, low acidity, some astringency and freshness
taste description versus 0.3% KCl solution (sensory panel [6]; 70 ppm in 0.3% KCl): less metallic and more salty
taste description versus corn curls without compound (sensory panel [7]; 100 ppm on corn curls with cheese flavor): saltier, and the rich profile was enhanced
taste description versus savoury model solution (sensory panel [8]): strong boost of saltiness and umami
taste description versus pure mayonnaise (sensory panel [9]): clearly more salty and had a stronger acetic acid character

O=C(O)Cc1c[nH]cn1 [2-(1H-imidazol-4-yl)acetic acid]
taste description versus pure ketchup (sensory panel [10]; 100 ppm in ketchup): clearly more salty, sour lingering and less sweet
taste description versus cheese sauce (sensory panel [1]; 50 ppm in cheese sauce): preferred, having more saltiness and umami character
taste description versus model broth base (sensory panel [4]; 70 ppm in model broth base comprising 0.3% NaCl): more mineral and salty
taste description versus 0.3% NaCl solution (sensory panel [5]; 90 ppm in 0.3% NaCl): clearly more salty with a minearlic note
panel preference / KCl masker rating (sensory panel [6]; 100 ppm in 0.3% KCl): preferred over solution C
taste description versus 0.3% KCl solution (sensory panel [6]; 100 ppm in 0.3% KCl): less bitter, less metallic and more salty
taste description versus corn curls without compound (sensory panel [7]; [12]): saltier, and the rich profile was enhanced
taste description versus pure mayonnaise (sensory panel [9]): clearly more salty with a less sour impression

Cc1c[nH]cn1 [4-methyl-1H-imidazole]
taste description versus 0.5% NaCl solution (sensory panel [5]): more salty

c1ccc2[nH]cnc2c1 [benzimidazole]
taste description versus pure ketchup (sensory panel [10]; 70 ppm in ketchup): clearly more salty
panel preference in broth (sensory panel [4]; 100 ppm benzimidazole versus 70 ppm 2-(1H-imidazol-4-yl)acetic acid in model broth base): preferred
taste description versus model broth base (sensory panel [4]; [11]): more mineral and salty
taste description versus 0.3% NaCl solution (sensory panel [5]; 80 ppm in 0.3% NaCl): clearly more salty with a sour fresh background
taste description versus 0.3% KCl solution (sensory panel [6]; 100 ppm in 0.3% KCl): less bitter, less metallic and more salty
taste description versus corn curls without compound (sensory panel [7]; [12]): saltier, and the rich profile was enhanced
taste description versus pure mayonnaise (sensory panel [9]): clearly more salty with a less sour impression

O=C(O)/C=C/c1c[nH]cn1 [urocanic acid, (2E)-3-(1H-imidazol-4-yl)prop-2-enoic acid]
taste description versus 0.5% NaCl solution (sensory panel [5]): more salty
